# Data taken from patent US12630512B2, “Agents for differentiating stem cells and treating cancer” (Minerva Biotechnologies Corporation, priority 2017, dated 2026).
# Legend:
# human fibroblasts = assay: Effect on fibroblasts as surrogate for normal cells; type: cell-based; settings: fibroblasts as surrogate for normal cells; 6 uM
# Description: However, fibroblasts are more differentiated than stem cells but are able to self-replicate for defined periods of time. We tested selected compounds of the invention to determine if these compounds were just cytotoxic or if they selectively affected stem cells and, importantly, cancer cells, but not normal, healthy cells. Here, we used fibroblasts as a surrogate for normal cells. […] […] Each compound was scored for its effect on fibroblast proliferation where “+” indicates 25% inhibition of fibroblast growth, “++” 50% inhibition and “+++” 75% inhibition of growth.
# cancer cells = assay: Cancer cell proliferation assay; type: cell-based
# Method: Percent inhibition of cancer cell migration was performed in a wound healing assay. The percent area that the invading cancer cells occupied, in the presence of a drug candidate compared to the controls, was quantified by Image J cell software which enables cell counting from photographs. IC50's were calculated by performing migration experiments at several compound concentrations and then applying Hill's equation. Inhibition of cancer cell proliferation was quantified by automated cell counting in the presence or absence of a drug candidate. […] The effect of the drug candidates on stem cell pluripotency or proliferation was scored by eye, based on cell morphology and cell density, with 0 being no change in morphology or cell number and 4 being the most profound effect, with the stem cells taking on the morphology of a differentiating cell, along with much fewer cells indicative of inhibition of proliferation. […]
# For the cancer cell proliferation experiment cancer cells were plated at constant densities (6000 cells/well) into a 96-well White-walled/Clear-bottom Tissue Culture Treated plate (Corning Incorporated, Big Flats, NY). […] At the 120 hour mark a calcein fluorescence assay (Thermo Fisher Scientific, Waltham, MA) is performed on the plate. Calcein fluorescence (final concentration 0.5 uM) is used to assess cell viability. […]
effect on fibroblast cells (human fibroblasts),Compound,inhibited cancer cell proliferation (cancer cells)
no effect,CN(C[C@H]1CC[C@H](C(=O)N2CCc3c([nH]c4ccccc34)C2C2CC2)CC1)C(=O)NC(C)(C)C (some centres unmarked) [MN1413],about 50%
no effect,C[C@@H]1Cc2c([nH]c3ccccc23)CN1C(=O)C1CCC(CN(C)C(=O)NC(C)(C)C)CC1 (some centres unmarked) [MN1423],50%
no effect,"CN(CC1CCC(C(=O)N2CCC(c3ccncc3)CC2)CC1)C(=O)OC(C)(C)C (centres unmarked) [MN1428, Tert-butyl methyl((4-(4-(pyridin-4-yl)piperidine-1-carbonyl)cyclohexyl)methyl)carbamate]",–
